Among the test systems are HCT-15 colon; IGROV1 ovarian; OVCAR-8 ovarian; A549 NSCLC; U251 CNS; MALME-3M melanoma; UACC-62 melanoma; OVCAR-5 ovarian; OVCAR-3 ovarian; K-562 leukemia.
What all share (test): DTP human tumour cell line panel, 48 h

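Dose response: 5 concentrations. Exposure: 48 h. Format: 96-well plates. Endpoint: linear interpolation; highest concentration if not reached. GI50: concentration for 50% inhibition of growth. Definition used: TGI = concentration required for complete inhibition of growth.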

The TGI is the concentration giving total growth inhibition. Read a low TGI as greater sensitivity of the cells. Regarding `CCN(CC)CCCNc1ncc(C)c2[nH]c3ccncc3c12`, the total growth inhibition concentration (TGI) in the assay with HCT-15 colon was more than 100 µM; in the assay with IGROV1 ovarian, 27.3 µM; with OVCAR-8 ovarian it was 96.8 µM; in the assay on A549 NSCLC, 22.7 µM; in the assay with U251 CNS it was 30.6 µM; with MALME-3M melanoma, 27.4 µM. Besides, the TGI is 28.2 µM with UACC-62 melanoma, 26.7 µM with OVCAR-5 ovarian, 56.3 µM in the assay on OVCAR-3 ovarian and more than 100 µM with K-562 leukemia.
Broadly, the GI50 is the concentration that inhibits growth by half. As to `Nc1nc(Cl)cc(OCC2(CO)CC(OCc3ccccc3)C2)n1` (centres undefined), the GI50 is 83.8 µM with HCT-15 colon; 66.6 µM in the assay on OVCAR-8 ovarian; 43 µM in the assay with A549 NSCLC; 55 µM with U251 CNS; 84.5 µM in the assay on MALME-3M melanoma; 77.1 µM in the assay on UACC-62 melanoma. Moreover, the GI50 was 47.1 µM in the assay on OVCAR-3 ovarian and 36.5 µM in the assay on K-562 leukemia.
Take `COc1cc(/C=C/c2cc(/C=C/c3ccc(O)c(OC)c3)nc(N)n2)ccc1O`: the GI50 is 2.82 µM with HCT-15 colon; 2.95 µM in the assay with IGROV1 ovarian; 2.19 µM with OVCAR-8 ovarian; 2.22 µM in the assay with A549 NSCLC; 1.79 µM in the assay with U251 CNS; 2.71 µM with MALME-3M melanoma. Besides, the GI50 was 2.03 µM in the assay with OVCAR-5 ovarian, 2.65 µM in the assay on OVCAR-3 ovarian and 2.3 µM in the assay on K-562 leukemia. Moreover, the TGI in the assay with HCT-15 colon came to 10.3 µM; in the assay with IGROV1 ovarian it was 7.08 µM; in the assay on OVCAR-8 ovarian, 7.24 µM; in the assay on A549 NSCLC, 6.04 µM; with U251 CNS, 5.69 µM; in the assay with MALME-3M melanoma, 6.76 µM. The figures for the TGI in the assay on OVCAR-5 ovarian, in the assay on OVCAR-3 ovarian and in the assay with K-562 leukemia were 4.33 µM, 8.62 µM and 8.31 µM, respectively.
Consider `O=[N+]([O-])c1ccccc1NC1c2ccccc2Oc2ccccc21`, for which the GI50 is 3.5 µM with HCT-15 colon; 16.9 µM with IGROV1 ovarian; 6.73 µM in the assay on OVCAR-8 ovarian; 6.51 µM in the assay on A549 NSCLC; 4.88 µM in the assay with U251 CNS; 7.13 µM with MALME-3M melanoma. The results for the GI50 with UACC-62 melanoma, with OVCAR-3 ovarian and with K-562 leukemia were 2.94 µM, 3.64 µM and 3.69 µM, respectively. Further, the TGI in the assay on HCT-15 colon, with IGROV1 ovarian, in the assay with OVCAR-8 ovarian, in the assay on A549 NSCLC, in the assay on U251 CNS and with MALME-3M melanoma was more than 100 µM throughout. Also, the TGI with UACC-62 melanoma, in the assay on OVCAR-3 ovarian and in the assay with K-562 leukemia was more than 100 µM each time.
Regarding `COC(=O)c1cccc(N[C@@H]2c3cc4c(cc3C(c3cc(OC)c(O)c(OC)c3)[C@H]3C(=O)OCC32)OCO4)c1` (some centres undefined), the TGI in the assay with HCT-15 colon was 4.54 µM; in the assay on IGROV1 ovarian, more than 50.7 µM; in the assay with OVCAR-8 ovarian it was more than 37 µM; in the assay on A549 NSCLC, 3.25 µM; with U251 CNS it was 12.2 µM; in the assay with MALME-3M melanoma, 27.8 µM. The TGI was 8.28 µM in the assay with UACC-62 melanoma, more than 100 µM with OVCAR-5 ovarian, 33.7 µM in the assay on OVCAR-3 ovarian and 20.6 µM in the assay on K-562 leukemia.
With `N=c1c2c(=S)n(-c3ccccc3)c(=S)n(-c3ccccc3)c2nc(SCCCN2CCN(c3cccc(Cl)c3)CC2)n1-c1ccccc1`, the TGI in the assay on HCT-15 colon, in the assay on IGROV1 ovarian, in the assay with OVCAR-8 ovarian, in the assay with U251 CNS, in the assay on MALME-3M melanoma and in the assay with UACC-62 melanoma was more than 100 µM throughout. The TGI in the assay on OVCAR-5 ovarian, in the assay on OVCAR-3 ovarian and in the assay on K-562 leukemia was more than 100 µM each time.
For `O=C(O)CNc1ccc(C(=O)O)cc1`, the TGI with HCT-15 colon, in the assay on IGROV1 ovarian, in the assay with OVCAR-8 ovarian, in the assay on A549 NSCLC, in the assay with U251 CNS and in the assay on MALME-3M melanoma was more than 100 µM in each case. Besides, the TGI with UACC-62 melanoma, in the assay on OVCAR-5 ovarian, in the assay on OVCAR-3 ovarian and with K-562 leukemia was more than 100 µM throughout.
Regarding `Cc1ccc([N+](=O)[O-])cc1S(=O)(=O)Nc1ccc(C2=NNC(c3ccccc3O)C2)cc1` (centres undefined), the TGI with HCT-15 colon was 97.6 µM; in the assay with IGROV1 ovarian, more than 100 µM; with OVCAR-8 ovarian, more than 100 µM; in the assay on A549 NSCLC it was more than 100 µM; with MALME-3M melanoma, 96.3 µM; in the assay with UACC-62 melanoma, 41.6 µM. Further, the results for the TGI in the assay on OVCAR-5 ovarian, in the assay with OVCAR-3 ovarian and in the assay on K-562 leukemia were more than 100 µM, 43.7 µM and more than 100 µM, respectively.
Regarding `CCCCCCCC/C=C\CCCCCCCC(=O)O`, the TGI in the assay on HCT-15 colon was 338 µM; in the assay with IGROV1 ovarian it was more than 281 µM; in the assay with OVCAR-8 ovarian it was 194 µM; in the assay with A549 NSCLC, 226 µM; in the assay on U251 CNS, 231 µM; with MALME-3M melanoma it was more than 500 µM. Further, the total growth inhibition concentration (TGI) was 351 µM with UACC-62 melanoma, more than 500 µM in the assay with OVCAR-5 ovarian, more than 232 µM in the assay on OVCAR-3 ovarian and 219 µM in the assay on K-562 leukemia.
As for `CCNc1nnc(-c2nsc3ccccc23)s1`, the TGI in the assay on HCT-15 colon, with IGROV1 ovarian, with OVCAR-8 ovarian, in the assay on A549 NSCLC, in the assay with U251 CNS and with UACC-62 melanoma was more than 100 µM throughout. Further, the TGI in the assay with OVCAR-5 ovarian is more than 100 µM; with OVCAR-3 ovarian, 57.6 µM; with K-562 leukemia it was more than 100 µM.
For the compound `CC(=O)Oc1ccc2c(c1)oc1c3ccc(OC(C)=O)cc3n(C)c(=O)c21`, the TGI was more than 100 µM with HCT-15 colon; more than 100 µM with IGROV1 ovarian; 79.3 µM in the assay with OVCAR-8 ovarian; more than 100 µM in the assay on A549 NSCLC; more than 100 µM with U251 CNS; 31.1 µM in the assay with MALME-3M melanoma. Also, the TGI in the assay with UACC-62 melanoma, in the assay on OVCAR-5 ovarian, in the assay with OVCAR-3 ovarian and in the assay on K-562 leukemia was more than 100 µM in each case.
With `O=C1C=CC2=[N+]([O-])C(c3ccccc3)(c3ccccc3)C(=Nc3ccccc3)C2=C1`, the TGI in the assay on HCT-15 colon turned out to be 6.34 µM; with IGROV1 ovarian it was 3.45 µM; in the assay on OVCAR-8 ovarian, 3.39 µM; in the assay with A549 NSCLC, 29.4 µM; in the assay with U251 CNS, 7.32 µM; in the assay on MALME-3M melanoma, 4.2 µM. Further, the TGI in the assay with UACC-62 melanoma is 4.51 µM; in the assay with OVCAR-5 ovarian it was 30 µM; with OVCAR-3 ovarian, 3.37 µM; in the assay on K-562 leukemia it was 4.34 µM.
With `Cc1cc(C)c2c(c1)CC1(Cc3c(C)ccc(C)c3C1=O)C2=O` (centres undefined), the TGI in the assay on HCT-15 colon, with IGROV1 ovarian, in the assay with OVCAR-8 ovarian, in the assay on A549 NSCLC, with U251 CNS and with MALME-3M melanoma was more than 100 µM throughout. In addition, the TGI with UACC-62 melanoma, with OVCAR-5 ovarian, in the assay with OVCAR-3 ovarian and in the assay with K-562 leukemia was more than 100 µM each time.
Regarding `N=C(N)c1ccc(-c2ccc(-c3ccccc3)s2)cc1`, the GI50 in the assay with A549 NSCLC was 2.14 µM; with MALME-3M melanoma it was 1.45 µM; in the assay with UACC-62 melanoma, 1.75 µM; in the assay with OVCAR-5 ovarian it was 1.59 µM. The TGI in the assay with A549 NSCLC was determined as 4.73 µM; with MALME-3M melanoma, 2.83 µM; with UACC-62 melanoma it was 3.42 µM; in the assay on OVCAR-5 ovarian, 2.94 µM.

The values are drawn from PubChem BioAssay (NCI).
